From publication PMC6493972, “Synthesis and Biological Evaluation of (E)-4-Hydroxy-3-methylbut-2-enyl Phosphate (HMBP) Aryloxy Triester Phosphoramidate Prodrugs as Activators of Vγ9/Vδ2 T-Cell Immune Responses” (Journal of Medicinal Chemistry, 2018)

How the values were obtained:
Vγ9/Vδ2 T-cells = assay: Activation of Vγ9/Vδ2 T-cells in PBMC (upregulation of CD69 and CD25); type: cell-based; conditions: human PBMC from healthy donors, 18 h, n = 4-5 donors, Figure 2d and text
PBMC = assay: Specific cell death in PBMC cultures (ED50, viability dye); type: cell-based, human; conditions: supplementary CSV
Method: Figure 2 Activation of human Vγ9/Vδ2^+ T cells by HMBP ProPAgens. (a) Human peripheral blood mononuclear cells (PBMC) were incubated with media or indicated concentrations of HMB-PP or zoledronate for 18 h. TCR Vγ9/Vδ2^+ T cells were then assessed for the upregulation of cell surface markers, CD69 and CD25. Data representative of n = 5. (b) As in (a), with PBMC incubated with indicated concentrations of HMBP ProPAgens. Data representative of n = 4. (c) As in (a) and (b), with data showing titrations of each of HMB-PP, zoledronate, and HMBP ProPAgens, alongside a medium control (M). Data from n = 4–5 donors. (d) EC50, ED50, and selectivity index (SI) values for each HMBP ProPAgens. Specific cell death, for ED50 values, was calculated after adjusting for nonspecific cell death in medium controls. (e) CD69 and CD25 activation in CD3^+ CD8^+ αβ T-cells for each compound.
I. T-cell isolation, culture and activation
PBMCs were isolated from heparinised venous blood from consented healthy donors (approved by the NRES Committee West Midlands ethical board; REC reference 14/WM/1254). Blood was layered over lymphoprep© (Stem Cell Technologies) and PBMC isolated according to manufacturers instructions. The cell culture medium used throughout was RPMI-1640 media supplemented with 2 mM L-glutamine, 25 mM HEPES, 1% sodium pyruvate, 50 μg/ml penicillin/streptomycin (Invitrogen) and 10% fetal calf serum (Sigma). For activation assays, 5 x 10^5 PBMC were cultured for 20 h in the presence of medium alone or the indicated concentrations of HMB-PP (Sigma), Zoledronate (Sigma), 5a, 5b, 5c and 5d (as described above). Cultured PBMC were labelled with Zombie© aqua viability dye (Biolegend) and cells were stained for surface antigens by antibodies directed against CD3 (UCHT1; […]
(§1) (IMMU360; 1:400); Beckman Coulter, and TCR Vδ2 (123R3; 1:200); Miltenyi. […] All cells were then labelled with Zombie© aqua viability dye and CFSE+ Zombie© aqua+ cells measured. All data were acquired on an LSR II (Beckton Dickinson) and data analysed with FlowJo V10.1 (TreeStar). Tabulated data were analysed in Graphpad PRISM 7

[1] = target: T1, carboxypeptidase cathepsin A (Homo sapiens, UniProt P10619); assay: In vitro cathepsin A mediated degradation monitored by 31P NMR and mass spectroscopy; type: in vitro ADME; conditions: after 72 h
T1 sequence (P10619 29-480): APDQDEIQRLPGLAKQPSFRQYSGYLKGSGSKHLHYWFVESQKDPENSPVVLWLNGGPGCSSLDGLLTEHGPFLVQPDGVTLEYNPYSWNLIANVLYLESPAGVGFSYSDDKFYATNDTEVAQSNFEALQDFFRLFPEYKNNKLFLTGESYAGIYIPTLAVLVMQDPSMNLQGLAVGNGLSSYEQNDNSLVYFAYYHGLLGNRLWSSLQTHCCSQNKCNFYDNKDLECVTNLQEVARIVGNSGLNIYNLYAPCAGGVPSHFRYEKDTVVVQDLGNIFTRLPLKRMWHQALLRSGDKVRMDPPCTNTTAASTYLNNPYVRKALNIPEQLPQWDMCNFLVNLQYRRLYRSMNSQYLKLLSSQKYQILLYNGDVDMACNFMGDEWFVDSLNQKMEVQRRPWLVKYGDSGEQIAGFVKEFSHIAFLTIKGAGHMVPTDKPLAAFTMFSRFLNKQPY
Method: In order to get an insight into the metabolism of ProPAgens 6a–d, compound 6d was incubated with the carboxypeptidase cathepsin A in vitro and the reaction was monitored with ^31P NMR. […] This may explain literature reports pursuing the phosphonates of HMBP where the −O-P- bond was replaced by a −CH2-P- one and lack of reports on the native HMBP phosphate prodrugs.[19]

[2] = test system: T24 urinary bladder carcinoma cell line; assay: Specific lysis of pulsed T24 bladder carcinoma cells by expanded Vγ9/Vδ2 T cells; type: cell-based, human; conditions: T24 pulsed 4 h with 10 nM ProPAgens or 10 μM zoledronate, cocultured 18 h with expanded Vγ9/Vδ2 T cells
Method: Next, we tested the potential for ProPAgens to sensitize the urinary bladder carcinoma cell line T24 for targeted killing by in vitro expanded Vγ9/Vδ2 T cells. Without sensitization, medium pulsed T24 cells were poorly targeted by increasing ratios of Vγ9/Vδ2 T cells, but upon pulsing for 4 h with zoledronate or ProPAgens 5a–d, T24 cells were specifically lysed (Figure 3a). […] In contrast, a 1000-fold lower concentration of each ProPAgen mediated a 2- to 4-fold increase in specific lysis of T24 over the same period (Figure 3b).
Figure 3 HMBP ProPAgens mediate the specific lysis of bladder cancer cells by Vγ9/Vδ2 T-cells. […] Specific killing of target cells was measured by amine-reactive dead cell marker staining. […] (b) As in (a) showing the mean ± SD specific killing of T24 cells at 1:10 target/effector ratio for each indicated treatment, n = 2: (∗) P < 0.05; (∗∗) P < 0.01; determined by one-way ANOVA. […]
as §1

SMILES | EC50, activation of Vγ9/Vδ2 T-cells (Vγ9/Vδ2 T-cells) | ED50 (PBMC) [µM] | also measured
COC(=O)[C@H](C)NP(=O)(OC/C=C(\C)CO[Si](C)(C)C(C)(C)C)Oc1ccccc1 (stereo partly drawn) [5a, Methyl ((((E)-4-((tert-Butyldimethylsilyl)oxy)-3-methylbut-2-en-1-yl)oxy)(phenoxy)phosphoryl)-L-alaninate] | low nanomolar activation |  | 
C/C(=C\COP(=O)(N[C@@H](C)C(=O)OC(C)C)Oc1ccccc1)CO[Si](C)(C)C(C)(C)C (stereo partly drawn) [5c, Isopropyl ((((E)-4-((tert-Butyldimethylsilyl)oxy)-3-methylbut-2-en-1-yl)oxy)(phenoxy)phosphoryl)-L-alaninate] | low nanomolar activation |  | 
C/C(=C\COP(=O)(N[C@@H](C)C(=O)OC(C)(C)C)Oc1ccccc1)CO[Si](C)(C)C(C)(C)C (stereo partly drawn) [5d, tert-Butyl ((((E)-4-((tert-Butyldimethylsilyl)oxy)-3-methylbut-2-en-1-yl)oxy)(phenoxy)phosphoryl)-L-alaninate] | low nanomolar activation | >100 | 
C/C(=C\COP(=O)(N[C@@H](C)C(=O)OC(C)(C)C)Oc1ccccc1)CO (stereo partly drawn) [6d, tert-Butyl ((((E)-4-Hydroxy-3-methylbut-2-en-1-yl)oxy)(phenoxy)phosphoryl)-L-alaninate] |  |  | degradation product (major metabolite) after incubation with cathepsin A [1]: phosphate group masked with the aryl motif and the amino acid ester moiety
C/C(=C\COP(=O)(O)OP(=O)(O)O)CO [HMBPP, (E)-4-hydroxy-3-methyl-but-2-enyl pyrophosphate] |  | >100 | 
O.O=P(O)(O)C(O)(Cn1ccnc1)P(=O)(O)O [Zoledronate] |  | >100 | specific lysis/killing of T24 cells by Vγ9/Vδ2 T cells (in words) [2]: only a marginal increase
